Among the data in patent US9458113B2 (Boehringer Ingelheim International GmbH, priority 2014, dated 2016) are IC50 values, retold here.

The IC50 is the midpoint of a concentration-inhibition curve. Read a low IC50 as greater potency in that assay.

For the test, the target named is Human neutrophil elastase (Homo sapiens (Human), UniProt P08246). The experiment in a line: Human Neutrophil Elastase Assay. Format: biochemical. The conditions noted are these: substrate MeOSuc-Ala-Ala-Pro-Val-AMC 250 μM, pH 7.5.
Human neutrophil elastase, sequence (P08246 30-247): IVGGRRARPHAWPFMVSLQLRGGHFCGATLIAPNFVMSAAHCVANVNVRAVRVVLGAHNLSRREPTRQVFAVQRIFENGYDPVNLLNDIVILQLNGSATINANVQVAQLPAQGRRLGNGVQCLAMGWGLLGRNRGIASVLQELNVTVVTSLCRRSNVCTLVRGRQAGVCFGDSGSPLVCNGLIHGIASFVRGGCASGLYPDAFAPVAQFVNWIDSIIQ
On to `CN1C(=O)N(c2ccnc(C(F)(F)F)c2)C2=C(C(=O)CC2)C1c1ccc(C#N)cc1-c1ccoc1` (centres unmarked) [Example 17, 3-Furan-3-yl-4-[3-methyl-2,5-dioxo-1-(2-trifluoromethyl-pyridin-4-yl)-2,3,4,5,6,7-hexahydro-1H-cyclopentapyrimidin-4-yl]-benzonitrile], for which the concentration for half-maximal inhibition (IC50) was found to be 11.2 nM. In turn, `CN1C(=O)N(c2cccc(C(F)(F)F)c2)C2=C(C(=O)CC2)C1c1ccc(C#N)cc1C(=O)NCCN` (centres unmarked) [Example 4.3] displayed an IC50 of 3.1 nM. In the case of `CN1C(=O)N(c2cccc(C(F)(F)F)c2)C2=C(C(=O)CC2)C1c1ccc(C#N)cc1CNC1CCOCC1` (centres unmarked) [Example 9.3], 2.9 nM corresponded to half-maximal inhibition (IC50). For the compound `CN1C(=O)N(c2cccc(C(F)(F)F)c2)C2=C(C(=O)CC2)C1c1ccc(C#N)cc1C(=O)NCC#N` (centres unmarked) [Example 1.5], the IC50 was determined as 3.1 nM. In turn, `CN1C(=O)N(c2cccc(C(F)(F)F)c2)C2=C(C(=O)CC2)C1c1ccc(C#N)cc1C(=O)NCc1ccnn1C` (centres unmarked) [Example 1.56] had an IC50 of 5.4 nM. `CN1C(=O)N(c2cccc(C(F)(F)F)c2)C2=C(C(=O)CC2)C1c1ccc(C#N)cc1C(=O)NCc1ccoc1` (centres unmarked) [Example 1.37] showed a half-inhibitory concentration (IC50) of 3.4 nM. `CC(=O)N[C@H]1CCN(C(=O)c2cc(C#N)ccc2C2C3=C(CCC3=O)N(c3cccc(C(F)(F)F)c3)C(=O)N2C)C1` (some centres unmarked) [Example 1.83] had an IC50 of 2.2 nM. Against the preceding compound, the IC50 is about 1.5-fold lower. Take `CN1C(=O)N(c2cccc(C(F)(F)F)c2)C2=C(C(=O)CCC2)C1c1ccc(C#N)cc1-c1ccn(C)n1` (centres unmarked) [Example 15.1]: the IC50 turned out to be 2.8 nM. In turn, `CN1C(=O)N(c2cccc(C(F)(F)F)c2)C2=C(C(=O)CCC2)C1c1ccc(C#N)cc1-c1ccco1` (centres unmarked) [Example 15.5] showed an IC50 of 5.7 nM. Compared with the last compound, the IC50 is about 2-fold higher.

In turn, `CN1C(=O)N(c2cccc(C(F)(F)F)c2)C2=C(C(=O)CC2)C1c1ccc(C#N)cc1C(=O)NC1CCNCC1` (centres unmarked) [Example 4.2] came in with an IC50 of 7.1 nM. `CN1CCC(NC(=O)c2cc(C#N)ccc2C2C3=C(CCC3=O)N(c3cccc(C(F)(F)F)c3)C(=O)N2C)C1` (centres unmarked) [Example 1.30] displayed an IC50 of 7.4 nM. The IC50 values of the last two compounds are within 1.5-fold of each other. Compound `CN1C(=O)N(c2cccc(C(F)(F)F)c2)C2=C(C(=O)CC2)C1c1ccc(C#N)cc1C(=O)NC1CCC(O)C1` (centres unmarked) [Example 3, 5-Cyano-N-(3-hydroxy-cyclopentyl)-2-[3-methyl-2,5-dioxo-1-(3-trifluoromethyl-phenyl)-2,3,4,5,6,7-hexahydro-1H-cyclopentapyrimidin-4-yl]-benzamide] gave an IC50 of 7.6 nM. In the case of `CN1C(=O)N(c2ccnc(C(F)(F)F)c2)C2=C(C(=O)CC2)C1c1ccc(C#N)cc1C(=O)N1CCOCC1` (centres unmarked) [Example 8.5], the IC50 is 71.6 nM.

In turn, `CN1C(=O)N(c2cccc(C(F)(F)F)c2)C2=C(C(=O)CC2)C1c1ccc(C#N)cc1C(=O)NCCN1CCOCC1` (centres unmarked) [Example 1.76] came in with an IC50 of 4.5 nM. This IC50 lies about 16-fold lower than the previous one. In turn, `CN1CCN(C(=O)c2cc(C#N)ccc2C2C3=C(CCCC3=O)N(c3cccc(C(F)(F)F)c3)C(=O)N2C)CC1` (centres unmarked) [Example 6.2] came in with an IC50 of 5.1 nM.

`CN1C(=O)N(c2cccc(C(F)(F)F)c2)C2=C(C(=O)CC2)C1c1ccc(C#N)cc1C(=O)NC(C)(C)C#N` (centres unmarked) [Example 5, 5-Cyano-N-(cyano-dimethyl-methyl)-2-[3-methyl-2,5-dioxo-1-(3-trifluoromethyl-phenyl)-2,3,4,5,6,7-hexahydro-1H-cyclopentapyrimidin-4-yl]-benzamide] showed an IC50 of 3.4 nM.

As for `CN1C(=O)N(c2cccc(C(F)(F)F)c2)C2=C(C(=O)CC2)C1c1ccc(C#N)cc1C(=O)NCc1ccncc1` (centres unmarked) [Example 1.48], 4.1 nM corresponded to half-maximal inhibition (IC50). On to `CN1C(=O)N(c2cccc(C(F)(F)F)c2)C2=C(C(=O)CC2)C1c1ccc(C#N)cc1C(=O)NCc1ccccc1` (centres unmarked) [Example 1.45], for which the IC50 was 5.3 nM.

Turning to `CN1C(=O)N(c2cccc(C(F)(F)F)c2)C2=C(C(=O)CC2)C1c1ccc(C#N)cc1-c1ccc2occc2c1` (centres unmarked) [Example 11.15], it took 16 nM to reach half-maximal inhibition (IC50). On to `CN1C(=O)N(c2cccc(C(F)(F)F)c2)C2=C(C(=O)CCC2)C1c1ccc(C#N)cc1C(=O)N1CCOCC1` (centres unmarked) [Example 6.1], for which it took 2.9 nM to reach half-maximal inhibition (IC50).

Consider `CN1C(=O)N(c2cccc(C(F)(F)F)c2)C2=C(C(=O)CC2)C1c1ccc(C#N)cc1C1=CCCO1` (centres unmarked) [Example 11.5], for which the IC50 is < 1 nM. `CN1C(=O)N(c2cccc(C(F)(F)F)c2)C2=C(C(=O)CC2)C1c1ccc(C#N)cc1C(=O)NCc1cccnc1` (centres unmarked) [Example 1.46] displayed an IC50 of 3.9 nM. The compound `CN1C(=O)N(c2cccc(C(F)(F)F)c2)C2=C(C(=O)CC2)C1c1ccc(C#N)cc1C(=O)N[C@@H]1CCNC1` (some centres unmarked) [Example 4.9] came in with a half-inhibitory concentration (IC50) of 6.4 nM. For `CN1C(=O)N(c2ccnc(C(F)(F)F)c2)C2=C(C(=O)CC2)C1c1ccc(C#N)cc1C1=CCN(C(=O)OC(C)(C)C)CC1` (centres unmarked) [Example 17.2, 4-{5-Cyano-2-[3-methyl-2,5-dioxo-1-(2-trifluoromethyl-pyridin-4-yl)-2,3,4,5,6,7-hexahydro-1H-cyclopentapyrimidin-4-yl]-phenyl}-3,6-dihydro-2H-pyridine-1-carboxylic acid tert-butyl ester], half-maximal inhibition (IC50) required 4.6 nM.

`Cc1noc(-c2cc(C#N)ccc2C2C3=C(CCC3=O)N(c3cccc(C(F)(F)F)c3)C(=O)N2C)n1` (centres unmarked) [Example 13.2, 4-[3-Methyl-2,5-dioxo-1-(3-trifluoromethyl-phenyl)-2,3,4,5,6,7-hexahydro-1H-cyclopentapyrimidin-4-yl]-3-(3-methyl-[1,2,4]oxadiazol-5-yl)-benzonitrile] yielded an IC50 of 2.8 nM. For `CN1C(=O)N(c2cccc(C(F)(F)F)c2)C2=C(C(=O)CC2)C1c1ccc(C#N)cc1C(=O)NCC(=O)N1CCOCC1` (centres unmarked) [Example 1.80], half-maximal inhibition (IC50) was put at 6 nM. As for `CN1C(=O)N(c2cccc(C(F)(F)F)c2)C2=C(C(=O)CC2)C1c1ccc(C#N)cc1C(=O)NCc1ccc(C#N)o1` (centres unmarked) [Example 1.64], the IC50 turned out to be 6.9 nM. In the case of `CN1C(=O)N(c2cccc(C(F)(F)F)c2)C2=C(C(=O)CC2)C1c1ccc(C#N)cc1-c1nnco1` (centres unmarked) [Example 13, 4-[3-Methyl-2,5-dioxo-1-(3-trifluoromethyl-phenyl)-2,3,4,5,6,7-hexahydro-1H-cyclopentapyrimidin-4-yl]-3-[1,3,4]oxadiazol-2-yl-benzonitrile], 2.1 nM corresponded to half-maximal inhibition (IC50). `CN1C(=O)N(c2cccc(C(F)(F)F)c2)C2=C(C(=O)CC2)C1c1ccc(C#N)cc1C(=O)NCC(F)F` (centres unmarked) [Example 1.16] yielded an IC50 of 6 nM.

Regarding `CN1C(=O)N(c2cccc(C(F)(F)F)c2)C2=C(C(=O)CC2)C1c1ccc(C#N)cc1C(=O)NCc1cccnn1` (centres unmarked) [Example 1.50], inhibition was half-maximal at 2.9 nM (IC50). Take `CN(CCN1CCOCC1)C(=O)c1cc(C#N)ccc1C1C2=C(CCC2=O)N(c2cccc(C(F)(F)F)c2)C(=O)N1C` (centres unmarked) [Example 1.81]: the midpoint of inhibition, the IC50, lay at 1.6 nM. Compared with the last compound, the IC50 is about 1.8-fold lower. Take `CN1C(=O)N(c2cccc(C(F)(F)F)c2)C2=C(C(=O)CC2)C1c1ccc(C#N)cc1C(=O)NCc1nccn1C` (centres unmarked) [Example 1.58]: the IC50 was determined as 2.4 nM. With `CN1C(=O)N(c2ccnc(C(F)(F)F)c2)C2=C(C(=O)CC2)[C@H]1c1ccc(C#N)cc1C(N)=O` [Example 8, 5-Cyano-2-[(R)-3-methyl-1-(2-trifluoromethyl-pyridin-4-yl)-2,5-dioxo-2,3,4,5,6,7-hexahydro-1H-cyclopentapyrimidin-4-yl]-benzamide], the IC50 worked out at 41 nM. Against the preceding compound, the IC50 is about 17-fold higher. As for `CN1C(=O)N(c2cccc(C(F)(F)F)c2)C2=C(C(=O)CCC2)C1c1ccc(C#N)cc1C(N)=O` (centres unmarked) [Example 6, 5-Cyano-2-[3-methyl-2,5-dioxo-1-(3-trifluoromethyl-phenyl)-1,2,3,4,5,6,7,8-octahydro-quinazolin-4-yl]-benzamide], inhibition was half-maximal at 1.6 nM (IC50). As for `COCCCNC(=O)c1cc(C#N)ccc1C1C2=C(CCC2=O)N(c2cccc(C(F)(F)F)c2)C(=O)N1C` (centres unmarked) [Example 1.20], it took 5.7 nM to reach half-maximal inhibition (IC50). In the case of `COCCCN(C)C(=O)c1cc(C#N)ccc1C1C2=C(CCC2=O)N(c2cccc(C(F)(F)F)c2)C(=O)N1C` (centres unmarked) [Example 1.24] it was 3.3 nM; in that of `CN1C(=O)N(c2cccc(C(F)(F)F)c2)C2=C(C(=O)CC2)C1c1ccc(C#N)cc1C(=O)N1C[C@H]2C[C@@H]1CN2` (some centres unmarked) [Example 4.15], 7.3 nM. `CN1C(=O)N(c2cccc(C(F)(F)F)c2)C2=C(C(=O)CC2)C1c1ccc(C#N)cc1C(=O)NCCF` (centres unmarked) [Example 1.9] returned a concentration for half-maximal inhibition (IC50) of 5.5 nM. In the case of `CN1C(=O)N(c2cccc(C(F)(F)F)c2)C2=C(C(=O)CC2)C1c1ccc(C#N)cc1C(=O)NCc1cncn1C` (centres unmarked) [Example 1.52] it was 4.2 nM; in that of `CN1C(=O)N(c2ccnc(C(F)(F)F)c2)C2=C(C(=O)CC2)C1c1ccc(C#N)cc1C(=O)N1CCCCC1` (centres unmarked) [Example 8.4], 181 nM. Take `CN1C(=O)N(c2cccc(C(F)(F)F)c2)C2=C(C(=O)CC2)C1c1ccc(C#N)cc1C1=CCNC1` (centres unmarked) [Example 14, 3-(2,5-Dihydro-1H-pyrrol-3-yl)-4-[3-methyl-2,5-dioxo-1-(3-trifluoromethyl-phenyl)-2,3,4,5,6,7-hexahydro-1H-cyclopentapyrimidin-4-yl]-benzonitrile]: the IC50 is < 1 nM. In the case of `CN1C(=O)N(c2cccc(C(F)(F)F)c2)C2=C(C(=O)CCC2)C1c1ccc(C#N)cc1C1=COCC1` (centres unmarked) [Example 15.10] it was 1.5 nM; in that of `CN1C(=O)N(c2cccc(C(F)(F)F)c2)C2=C(C(=O)CCC2)C1c1ccc(C#N)cc1-c1ccoc1` (centres unmarked) [Example 15, 3-Furan-3-yl-4-[3-methyl-2,5-dioxo-1-(3-trifluoromethyl-phenyl)-1,2,3,4,5,6,7,8-octahydro-quinazolin-4-yl]-benzonitrile], 3.2 nM; in that of `CN1C(=O)N(c2cccc(C(F)(F)F)c2)C2=C(C(=O)CC2)C1c1ccc(C#N)cc1-c1ccoc1` (centres unmarked) [Example 11, 3-Furan-3-yl-4-[3-methyl-2,5-dioxo-1-(3-trifluoromethyl-phenyl)-2,3,4,5,6,7-hexahydro-1H-cyclopentapyrimidin-4-yl]-benzonitrile], 3.3 nM. `CN1C(=O)N(c2cccc(C(F)(F)F)c2)C2=C(C(=O)CC2)C1c1ccc(C#N)cc1C(=O)N1CCC(N)CC1` (centres unmarked) [Example 4.1] came in with an IC50 of 15.1 nM. Compared with the last compound, the IC50 is about 4.6-fold higher.

Compound `CN1C(=O)N(c2cccc(C(F)(F)F)c2)C2=C(C(=O)CC2)C1c1ccc(C#N)cc1-c1ccn(C)c(=O)c1` (centres unmarked) [Example 11.7] came in with an IC50 of 1.2 nM. In the case of `CN1C(=O)N(c2cccc(C(F)(F)F)c2)C2=C(C(=O)CCC2)C1c1ccc(C#N)cc1C1=CCOCC1` (centres unmarked) [Example 15.9], half-maximal inhibition (IC50) was put at 1.3 nM.
